Earlier results on 1 compound are cited in paper PMC5510229, “BCAT1 controls metabolic reprogramming in activated human macrophages and is associated with inflammatory diseases” (Nature Communications, 2017).

Data set [1] relates to a2δ−1 and a2δ−2 subunits of voltage-activated calcium channels. Set-up: method as in PMID 19128880. Conditions: cited from earlier work.
On the set-up of data set [2]: method as in PMID 10381778. The following applies: cited from earlier work.

Consider `NCC1(CC(=O)O)CCCCC1` [gabapentin], for which, in data set [1], the binding affinity entry was “high affinity”. Besides, the anti-inflammatory effects result in data set [2] is given as “no apparent anti-inflammatory effects”.
